Data set [1] deals with T1, hMAO-B (Homo sapiens, UniProt P27338).
T1 sequence (P27338 1-520): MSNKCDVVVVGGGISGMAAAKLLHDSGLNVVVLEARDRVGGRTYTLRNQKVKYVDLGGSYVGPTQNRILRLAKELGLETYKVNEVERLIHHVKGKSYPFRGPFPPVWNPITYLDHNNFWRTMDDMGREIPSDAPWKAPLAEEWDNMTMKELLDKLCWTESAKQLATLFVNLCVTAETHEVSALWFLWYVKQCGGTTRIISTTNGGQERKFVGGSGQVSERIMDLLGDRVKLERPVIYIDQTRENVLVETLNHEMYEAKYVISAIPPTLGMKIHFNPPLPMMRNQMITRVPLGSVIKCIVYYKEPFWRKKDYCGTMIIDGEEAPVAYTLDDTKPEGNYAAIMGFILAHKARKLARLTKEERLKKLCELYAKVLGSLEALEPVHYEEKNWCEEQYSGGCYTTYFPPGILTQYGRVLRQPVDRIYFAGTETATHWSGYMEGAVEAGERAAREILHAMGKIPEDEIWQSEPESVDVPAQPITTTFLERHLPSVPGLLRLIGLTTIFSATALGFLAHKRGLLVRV
The data set can be described thus: enzyme kinetic studies (Lineweaver-Burk) of hMAO-B inhibition. The format is biochemical. As to the method:
The mechanism of hMAO-B inhibition was investigated by enzyme kinetic studies. Lineweaver-Burk graphs were used to estimate the type of inhibition. […] The velocity measurements were performed by using different substrate concentrations (20 µM–0.625 µM). The Ki (intercept on the x-axis) value of compound 3e was determined from the secondary plot of the 1/V versus varying concentrations.
The Lineweaver-Burk graphics present the inhibition type as a mixed-type, competitive, uncompetitive, or non-competitive. In the mix-typed inhibition, the control and inhibitor lines cross neither x- nor y-axis at the same point. […] There is no crosses between the lines in uncompetitive-type inhibition. […] Thus, it can be declared that the mechanism of hMAO-B inhibition of 3e is non-competitive, clarifying that the inhibitor can bind to either free enzyme or enzyme–substrate complex.
The same materials were used in the MAO inhibition assay. […] The solutions of inhibitor (20 μL/well) and enzyme added to the fine black-bottom 96-well microtiter plate and then the mixture was incubated at 37 °C for 30 min. After incubation period, the working solution, including various concentrations (20, 10, 5, 2.5, 1.25, and 0.625 μM) of tyramine (100 μL/well), was added. The increase of the fluorescence (Ex/Em = 535/587 nm) was recorded for 30 min. A parallel experiment was performed without using an inhibitor. All processes were assayed in quadruplicate. Lineweaver-Burk plots were obtained by using Microsoft Office Excel 2013 to analyze the inhibition type. The slopes of the Lineweaver-Burk plots were replotted versus the inhibitor concentration, and the Ki values were determined from the x-axis intercept as −Ki.

In data set [2] the target is T2, hMAO-A (Homo sapiens, UniProt P21397).
T2 sequence (P21397 1-527): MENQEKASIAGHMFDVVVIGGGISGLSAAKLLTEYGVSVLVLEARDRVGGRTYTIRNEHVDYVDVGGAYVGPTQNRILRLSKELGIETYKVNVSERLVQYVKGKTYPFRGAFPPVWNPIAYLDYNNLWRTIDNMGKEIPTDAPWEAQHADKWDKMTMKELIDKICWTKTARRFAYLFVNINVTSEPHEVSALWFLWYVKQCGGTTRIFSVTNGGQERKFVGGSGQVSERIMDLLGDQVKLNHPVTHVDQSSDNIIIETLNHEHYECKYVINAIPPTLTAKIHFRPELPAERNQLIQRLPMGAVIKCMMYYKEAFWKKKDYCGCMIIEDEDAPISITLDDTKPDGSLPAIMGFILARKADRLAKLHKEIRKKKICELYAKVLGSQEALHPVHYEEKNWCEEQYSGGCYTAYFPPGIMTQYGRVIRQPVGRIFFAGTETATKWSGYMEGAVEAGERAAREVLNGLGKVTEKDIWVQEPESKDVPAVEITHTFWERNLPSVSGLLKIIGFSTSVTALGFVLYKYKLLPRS
The data set can be described thus: in vitro fluorometric hMAO-A inhibition assay (Amplex Red). Type of data set: biochemical. The note with it: read-out: MAO A Inhibition %. On the procedure: The in vitro fluorometric enzymatic assay, allowing to sensitively detect monoamine oxidase activity, was applied to investigate hMAO-A and hMAO-B inhibitory potential of compounds 3a–3j. The method was performed in two steps, as previously described. […]
An enzyme inhibition assay was performed according to our recent study. The inhibitor (20 μL/well) and hMAO-A (100 μL/well) or hMAO-B solution (100 μL/well) was added to the fine black-bottom 96-well microtiter plate and the mixture was incubated at 37 °C for 30 min. After the incubation period, the reaction was started by adding a working solution (100 μL/well) ([…] Amplex Red reagent, 1 U/mL horseradish peroxidase and 1 mM p-tyramine) and all pipetting processes were performed using a Biotek Precision XS robotic system (BioTek Instruments, Winooski, VT, USA).
The production of H2O2 and, subsequently, of resorufin was quantified at 37 °C in a BioTek-Synergy H1 microplate reader based on the fluorescence generated (excitation, 535 nm, emission, 587 nm) over a 15 min period, in which the fluorescence increased linearly. Control experiments were carried out simultaneously by replacing the inhibitor solution with 2% DMSO (20 μL). In order to check the probable inhibitory effect of inhibitors on horseradish peroxidase, a parallel reading was achieved by replacing enzyme solutions with 3% H2O2 solution (20 mM 100 μL/well). In addition, the probable capacity of the inhibitors to modify the fluorescence generated in the reaction mixture due to non-enzymatic inhibition was determined by mixing inhibitor and working solutions.
The specific fluorescence emission (used to obtain the final results) was calculated after subtraction of the background activity, which was determined from vials containing all components except the hMAO isoforms, which were replaced by phosphate buffer (100 μL/well). Blank, control and all concentrations of inhibitors were analyzed in quadruplicate and inhibition percent was calculated by using following equation: % Inhibition=(FCt2−FCt1)−(FIt2−FIt1)/FCt2−FCt1×100 where FCt2 is the fluorescence of a control well measured at t2 time; FCt1 is the fluorescence of a control well measured at t1 time; FIt2 is the fluorescence of an inhibitor well measured at t2 time; and FIt1 is the fluorescence of an inhibitor well measured at t1 time.
The IC50 values were calculated from a dose-response curve obtained by plotting the percentage inhibition versus the log concentration with the use of GraphPad PRISM software (version 5.0, GraphPad Software Inc., La Jolla, CA, USA).

As usually defined, the Ki is a dissociation constant, usually derived from enzyme kinetics or from competition with a known ligand. One may read the melting point as the temperature, or range, at which the solid turns liquid. By inhibition is commonly meant how much of the control response was suppressed. The molecule `COc1ccc2sc(SCC(=O)NN=Cc3ccc([N+](=O)[O-])s3)nc2c1` [Compound 3e, 2-((5-Methoxybenzothiazol-2-yl)thio)-N′-((5-nitrothiophen-2-yl)methylene)acetohydrazide] registered a melting point of 177.2 to 178.6 °C. The “mechanism (type) of hMAO-B inhibition” value in data set [1] (Lineweaver-Burk plots) is “non-competitive”. Also, the Vmax in data set [1] (inhibitor concentration 2 × IC50) is recorded as 158.730 nmol/min/mg protein. In addition, the Vmax in data set [1] (inhibitor concentration IC50) turned out to be 212.766 nmol/min/mg protein. Further, the Vmax in data set [1] (inhibitor concentration IC50/2) was found to be 263.158 nmol/min/mg protein. The inhibition constant Ki in data set [1] (secondary plot, x-axis intercept, substrate tyramine, read-out: Ki (steady-state inhibition constant) for the inhibition of hMAO-B) is 61 nM. In data set [2] (10^−3 M), the inhibition at 1000 µM amounted to 22.1%. Moreover, in data set [2] (10^−4 M), the inhibition at 100 µM amounted to 18.6%.
